According to publication PMC10210398, “Genomic, functional and structural analyses elucidate evolutionary innovation within the sea anemone 8 toxin family” (BMC Biology, 2023):

Experiments:
hKV10.1 = assay: Whole-cell patch-clamp, hKV10.1 in transiently transfected CHO cells; type: cell-based, human; conditions: 2 µM, KV10.1
Procedure: (§1) CHO and human embryonic kidney (HEK 293) cells were grown in DMEM-high glucose supplemented with 10% FBS, 2 mM L-glutamine, 100 U/mL penicillin-g, and 100 μg/mL streptomycin (Invitrogen) at 37 °C in a 5% CO2 and 95% air humidified atmosphere. Cells were passaged twice per week following a 5-min incubation in PBS containing 0.2 g/L EDTA (Invitrogen, Carlsbad, CA).
(§2) CHO cells (ATCC) were transiently transfected with plasmids encoding hKV1.1, hKV1.2, hKV10.1, hKCa3.1, hTRPA1, or hNaV1.7 using Lipofectamine 2000 (Invitrogen, Carlsbad, CA) following the manufacturer’s protocol, then cultured under standard conditions. The cells were co-transfected with a plasmid encoding green fluorescent protein (GFP) at a molar ratio of 10:1 except for hKV1.1, hKV1.2, and hKCa3.1 for which GFP-tagged ion channel vectors were used. Currents were recorded 24–36 h after transfection. […] HEK 293 cells stably expressing the hKv11.1 channel (hERG, hKCNH2 gene, a kind gift from H. Wulff, University of California, Davis, CA) and mKCa1.1 channel (BKCa, hKCNMA1, a kind gift from C. Beeton, Baylor College of Medicine, Houston, TX) were used. hTRPV1 channels were expressed in a stable manner in CHO cells. Transfected cells were washed twice with 2 mL of ECS (see below) and re-plated onto 35-mm polystyrene cell culture dishes (Cellstar, Greiner Bio-One). hKV1.3 currents were recorded from activated peripheral blood mononuclear cells (PBMCs, see below) 3–4 days after activation. Human veinous blood was obtained from anonymised healthy donors. […]
(§3) Conventional whole-cell patch-clamp electrophysiology was used to record ionic currents. […] Data were analysed using Prism 8 (GraphPad, CA, USA) and ClampFit 10.5 software (Molecular Devices Inc., Sunnyvale, CA). […] For hKCa3.1, hTRPA1 and hTRPV1, the reversal potential for K^+ was determined and only those currents were analysed for which the reversal potential fell into the range of the theoretical reversal potential ± 5 mV (− 86.5 ± 5 mV for KCa3.1, and 0 ± 5 mV for hTRPA1 and hTRPV1).

mKCa1.1 channel [1] = type: cell-based
Procedure: as §1, §2, §3

hKV1.3 [2] = type: cell-based, human
Procedure: as §2, with “donors. PBMCs were isolated using Histopaque1077 (Sigma-Aldrich Hungary, Budapest, Hungary) density gradient centrifugation. Cells obtained were resuspended in RPMI 1640 medium containing 10% foetal calf serum (Sigma-Aldrich Hungary, Budapest, Hungary), 100 μg/mL penicillin, 100 μg/mL streptomycin, and 2 mM L-glutamine, seeded in a 24-well culture plate at a density of 5–6 × 10^5 cells/mL, and grown in a 5% CO2 incubator at 37 °C for 3–5 days.” for “donors.”
as §3

hKV1.1 [3] = type: cell-based, human
Procedure: as §1, §2, §3

hKV1.1 [4] = conditions: read-out: Kd (positive control concentration equivalent to Kd); KV1.1; no reference given; cited from earlier work
Procedure: (§4) Voltage protocols: For measurement of hKV1.1–1.3 and hKV10.1, currents, voltage steps to + 50 mV, were applied from a holding potential of − 120 mV every 15 or 30 s and the peak current was measured. Channels were activated by a series of depolarisation pulses to + 50 mV from a holding potential of − 120 mV. For KV1.1, 50-ms-long activating stimuli were used every 15 s. Due to the highly variable activation kinetics of KV1.2 [145] 200-ms-long pulses were applied every 15 s to maximise the open probability of the channel.

mKCa1.1 channel [5] = conditions: read-out: Kd (positive control concentration equivalent to Kd); KCa1.1; no reference given; cited from earlier work
Procedure: as §4

hKV1.3 [6] = conditions: read-out: Kd (positive control concentration equivalent to Kd); KV1.3; no reference given; cited from earlier work
Procedure: as §4

hKV1.2 = target: T1, hKV1.2 (Homo sapiens, UniProt P16389); assay: Whole-cell patch-clamp, hKV1.2 in transiently transfected CHO cells; type: cell-based; set-up: reduction in current amplitude, positive control: dose or concentration left out as unconfirmed; conditions: […] nM, KV1.2
T1 construct: GFP; expressed in transfected cells; host or cells: CHO cells (ATCC), transient transfection with Lipofectamine 2000
Procedure: as §1
CHO cells (ATCC) were transiently transfected with plasmids encoding hKV1.1, hKV1.2, hKV10.1, hKCa3.1, hTRPA1, or hNaV1.7 using Lipofectamine 2000 (Invitrogen, Carlsbad, CA) following the manufacturer’s protocol, then cultured under standard conditions. The cells were co-transfected with a plasmid encoding green fluorescent protein (GFP) at a molar ratio of 10:1 except for hKV1.1, hKV1.2, and hKCa3.1 for which GFP-tagged ion channel vectors were used. Currents were recorded 24–36 h after transfection. […] HEK 293 cells stably expressing the hKv11.1 channel (hERG, hKCNH2 gene, a kind gift from H. Wulff, University of California, Davis, CA) and mKCa1.1 channel (BKCa, hKCNMA1, a kind gift from C. Beeton, Baylor College of Medicine, Houston, TX) were used. hTRPV1 channels were expressed in a stable manner in CHO cells. Transfected cells were washed twice with 2 mL of ECS (see below) and re-plated onto 35-mm polystyrene cell culture dishes (Cellstar, Greiner Bio-One). hKV1.3 currents were recorded from activated peripheral blood mononuclear cells (PBMCs, see below) 3–4 days after activation. Human veinous blood was obtained from anonymised healthy donors. PBMCs were isolated using Histopaque1077 (Sigma-Aldrich Hungary, Budapest, Hungary) density gradient centrifugation. Cells obtained were resuspended in RPMI 1640 medium containing 10% foetal calf serum (Sigma-Aldrich Hungary, Budapest, Hungary), 100 μg/mL penicillin, 100 μg/mL streptomycin, and 2 mM L-glutamine, seeded in a 24-well culture plate at a density of 5–6 × 10^5 cells/mL, and grown in a 5% CO2 incubator at 37 °C for 3–5 days. Phytohemagglutinin A (PHA, Sigma-Aldrich Hungary, Budapest, Hungary) was added to the medium at 10 μg/mL to amplify the KV1.3 expression. Cells were washed gently twice with 2 mL of ECS for the patch-clamp experiments.
Conventional whole-cell patch-clamp electrophysiology was used to record ionic currents. Micropipettes were pulled in four stages using a Flaming Brown automatic pipette puller (Sutter Instruments, San Rafael, CA) from Borosilicate Standard Wall with Filament aluminium–silicate glass (Harvard Apparatus Co., Holliston, MA) with tip diameters between 0.5 and 1 μm and heat polished to a tip resistance of 2–8 MΩ. All measurements were carried out by using Axopatch 200B amplifier connected to a personal computer using Axon Digidata 1550A data acquisition hardware (Molecular Devices, Sunnyvale, CA). In general, the holding potential was − 120 mV. Records were discarded when a leak at the holding potential was > 10% of the peak current at the test potential. Series resistance compensation up to 70% was used to minimise voltage errors and achieve proper voltage-clamp conditions. Experiments were performed at room temperature (20–24 °C). Data were analysed using Prism 8 (GraphPad, CA, USA) and ClampFit 10.5 software (Molecular Devices Inc., Sunnyvale, CA). Before analysis, whole-cell current traces were corrected for ohmic leakage and digitally filtered with a three-point boxcar smoothing filter. For hKCa3.1, hTRPA1 and hTRPV1, the reversal potential for K^+ was determined and only those currents were analysed for which the reversal potential fell into the range of the theoretical reversal potential ± 5 mV (− 86.5 ± 5 mV for KCa3.1, and 0 ± 5 mV for hTRPA1 and hTRPV1).

T1 sequence (P16389 whole entry): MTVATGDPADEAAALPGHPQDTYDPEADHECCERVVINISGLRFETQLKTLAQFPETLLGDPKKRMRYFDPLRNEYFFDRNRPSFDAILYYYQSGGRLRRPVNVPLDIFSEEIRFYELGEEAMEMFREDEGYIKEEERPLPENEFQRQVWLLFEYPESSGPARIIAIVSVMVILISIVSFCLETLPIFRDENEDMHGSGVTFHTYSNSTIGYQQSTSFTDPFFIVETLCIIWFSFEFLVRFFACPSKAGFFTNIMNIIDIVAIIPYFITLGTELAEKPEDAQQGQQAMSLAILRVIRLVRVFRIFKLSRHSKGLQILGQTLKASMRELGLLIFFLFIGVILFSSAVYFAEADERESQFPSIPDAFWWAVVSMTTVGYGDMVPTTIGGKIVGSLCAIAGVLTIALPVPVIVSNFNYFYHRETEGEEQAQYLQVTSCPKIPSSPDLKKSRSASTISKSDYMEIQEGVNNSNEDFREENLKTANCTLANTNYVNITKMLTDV

COc1ccc(CCN2CCC(Nc3nc4ccccc4n3Cc3ccc(F)cc3)CC2)cc1 [Astemizole, astemizole, reference compound]
reduction in current amplitude, positive control (hKV10.1): ~50%

CC[N+](CC)(CC)CC [TEA+, tetraethylammonium, reference compound]
reduction in current amplitude, positive control (mKCa1.1 channel [1]): ~50%
reduction in current amplitude, positive control (hKV1.3 [2]): ~50%
reduction in current amplitude, positive control (hKV1.1 [3]): ~50%
Kd (hKV1.1 [4]): 0.3 mM
Kd (mKCa1.1 channel [5]): 10 mM
Kd (hKV1.3 [6]): 10 mM

charybdotoxin [ChTx, reference compound]
reduction in current amplitude, positive control (hKV1.2): ~50%
